# Experimental data from patent publication US9211314B2, “Treatment selection for lung cancer patients using mass spectrum of blood-based sample” (Biodesix, Inc., priority 2014, dated 2015).
# Where “and” joins values, the source holds several entries; their conditions need not be identical. Equal values may be shown once.
# Experiments:
# advanced NSCLC patients [1] = assay: PROSE study: second-line erlotinib versus chemotherapy, OS and PFS by VS2.0/VS1.0 classification; format: in vivo, human
# Experimental: The final CMC/D classifier described above was subject to a test on mass spectra obtained from available samples from the PROSE study under a validation protocol. The final CMC/D classifier was deemed fixed prior to this validation protocol. Mass spectra were provided to analysts blinded to their clinical data. The spectra were analyzed as described above and the resulting classifications (Appendix G) were generated. An un-blinding key was then provided and a statistical analysis was carried out.
# For patient 01—044 and patient 01—080, two samples were available. […] No samples were available for patient 01—050, patient 03—006, patient 06—004, patient 06—021, patient 11—043, patient 11—048, and patient 12—014.
# advanced NSCLC patients [2] = conditions: PROSE, patients classified as VSP (VS1.0); cited from earlier work
# advanced NSCLC patients [3] = assay: Time-to-event outcomes (OS, PFS) of development set patients (Italian A, B, C cohorts) grouped by VS2.0/VS1.0 classification; format: in vivo, human; conditions: for Cox HR (95% CI), OS / Cox HR (95% CI), PFS / Median OS / Median PFS: development set
# Text: The following cohorts of patients had samples available for this project: sample sets known as “Italian A”, “Italian B”, “Italian C.” Italian A and B were cohorts of patients with advanced NSCLC treated with gefitinib used in the development and validation of the original VeriStrat test. See generally, U.S. Pat. No. 7,736,905; Taguchi et al., JNCI 99: 838-846 (2007). Italian C was a cohort of patients treated in advanced line with a variety of chemotherapy regimens.
# The VS2.0 final classifier was applied to all samples in the development set. Note that this includes samples included in training of the classifier. The VS2.0 classifications of the development set samples are given in Appendix E. Notice that all samples with a VS1.0 classification of Poor were assigned a label of Early. OS and PFS are plotted for patients in the development set grouped according to: Late, Unknown and Early (excluding VS1.0 Poor) and VS 1.0 Poor in FIG. 6. Note that several patients in the Italian C cohort had OS data, but no PFS data. FIG. 6 is a plot of time-to-event outcomes of patients in the development set with labels assigned from development set spectra; FIG. 6A: OS for gefitinib-treated patients, FIG. 6B: PFS for gefitinib-treated patients, FIG. 6C: OS for chemotherapy-treated patients and FIG. 6D PFS for chemotherapy-treated patients.
# [4] = group Early/Unknown (VS1.0 Good)
# [5] = comparison Early/Unk vs Late within treatment
# [6] = comparison Poor vs Early/Unk within treatment
# [7] = comparison Poor vs Late within treatment
# [8] = group Early/Unknown (excluding VS1.0 Poor)
smiles,measurement,setting,value
"C#Cc1cccc(Nc2ncnc3cc(OCCOC)c(OCCOC)cc23)c1 [ERL, erlotinib]",Median OS,advanced NSCLC patients [1]; [4],9.6 months
same,Median PFS,advanced NSCLC patients [1]; [4],2.3 months
same,Median OS,advanced NSCLC patients [1]; group Late,17.1 months
same,Median PFS,advanced NSCLC patients [1]; group Late,3.9 months
same,Median OS,"advanced NSCLC patients [1]; group Late, listed as erlotinib",17.1 months and 17 months
same,Median OS,advanced NSCLC patients [1]; group VS1.0 Poor,3.1 months
same,Median PFS,advanced NSCLC patients [1]; group VS1.0 Poor,1.7 months
same,"HR (95% CI), OS, Treatment: CT vs ERL",advanced NSCLC patients [1]; multivariate analysis of VS1.0 Good population,1.12 (0.85-1.65)
same,"Survival, erlotinib versus chemotherapy",advanced NSCLC patients [2],better survival on chemotherapy versus erlotinib
"COc1cc2ncnc(Nc3ccc(F)c(Cl)c3)c2cc1OCCCN1CCOCC1 [GEF, gefitinib]","Cox HR (95% CI), OS",advanced NSCLC patients [3]; [5],0.59 (0.37-0.94)
same,"Cox HR (95% CI), PFS",advanced NSCLC patients [3]; [5],0.58 (0.37-0.91)
same,"Cox HR (95% CI), OS",advanced NSCLC patients [3]; [6],0.49 (0.33-0.75)
same,"Cox HR (95% CI), PFS",advanced NSCLC patients [3]; [6],0.64 (0.42-0.95)
same,"Cox HR (95% CI), OS",advanced NSCLC patients [3]; [7],0.30 (0.18-0.49)
same,"Cox HR (95% CI), PFS",advanced NSCLC patients [3]; [7],0.36 (0.22-0.60)
same,Median OS,advanced NSCLC patients [3]; [8],243 days
same,Median PFS,advanced NSCLC patients [3]; [8],92 days
same,Median OS,advanced NSCLC patients [3]; group Late,457 days
same,Median PFS,advanced NSCLC patients [3]; group Late,208 days
same,Median OS,advanced NSCLC patients [3]; group VS1.0 Poor,96.5 days
same,Median PFS,advanced NSCLC patients [3]; group VS1.0 Poor,61.5 days
same,"Benefit by overall survival curves, gefitinib versus chemotherapy","advanced NSCLC patients [3]; patients whose sample tested Late, FIGS. 6A and 6C",greater benefit from gefitinib than chemotherapy
